Columns and labels:
NCI-H460 [1] = assay: Chemo-sensitizing activity against human NCI-H460 cells assessed as reversal fold at 2 uM measured after 72 hrs in presence of mitoxantrone by CCK8 assay relative to control; assay type: functional
NCI-H460 [2] = assay: Chemo-sensitizing activity against mitoxantrone-selected ABCG2-overexpressing human NCI-H460/MX20 cells assessed as reversal fold at 5 uM measured after 72 hrs in presence of mitoxantrone by CCK8 assay relative to control; assay type: functional
NCI-H460 [3] = assay: Chemo-sensitizing activity against human NCI-H460 cells assessed as reversal fold at 2 uM measured after 72 hrs in presence of SN-38 by CCK8 assay relative to control; assay type: functional
A549 [4] = assay: Chemo-sensitizing activity against becatecarin-selected ABCG2-overexpressing human A549/Bec150 cells assessed as reversal fold at 2 uM measured after 72 hrs in presence of mitoxantrone by CCK8 assay relative to control; assay type: functional
A549 [5] = assay: Chemo-sensitizing activity against becatecarin-selected ABCG2-overexpressing human A549/Bec150 cells assessed as reversal fold at 1 uM measured after 72 hrs in presence of topotecan by CCK8 assay relative to control; assay type: functional
HEK293 [6] = assay: Chemo-sensitizing activity against human HEK293 cells assessed as reversal fold at 5 uM measured after 72 hrs in presence of topotecan by CCK8 assay relative to control; assay type: functional
HEK293 [7] = assay: Chemo-sensitizing activity against ABCG2-overexpressing human HEK293 cells assessed as reversal fold at 1 uM measured after 72 hrs in presence of topotecan by CCK8 assay relative to control; assay type: functional
NCI/ADR-RES = assay: Chemo-sensitizing activity against ABCB1-overexpressing human NCI/ADR-RES cells assessed as reversal fold at 2 uM measured after 72 hrs in presence of vincristine by CCK8 assay relative to control; assay type: functional
OVCAR-8 = assay: Chemo-sensitizing activity against human OVCAR-8 cells assessed as reversal fold at 5 uM measured after 72 hrs in presence of colchicine by CCK8 assay relative to control; assay type: functional
HEK293 [8] = assay: Chemo-sensitizing activity against ABCB1-overexpressing human HEK293/MDR19 cells assessed as reversal fold at 1 uM measured after 72 hrs in presence of vincristine by CCK8 assay relative to control; assay type: functional
HEK293 [9] = assay: Chemo-sensitizing activity against ABCB1-overexpressing human HEK293/MDR19 cells assessed as reversal fold at 2 uM measured after 72 hrs in presence of vincristine by CCK8 assay relative to control; assay type: functional
HEK293 [10] = assay: Chemo-sensitizing activity against human HEK293 cells assessed as reversal fold at 2 uM measured after 72 hrs in presence of colchicine by CCK8 assay relative to control; assay type: functional
ABCG2 = target: T1, ABCG2 (Homo sapiens, UniProt Q9UNQ0); assay: Inhibition of ABCG2 in mitoxantrone-selected ABCG2-overexpressing human NCI-H460/MX20 cells assessed as increase in intracellular mitoxantrone accumulation at 20 uM incubated for 1 hr in presence of mitoxantrone by flow cytometry; assay type: cell-based; conditions: probe mitoxantrone
T1 sequence (Q9UNQ0 whole entry): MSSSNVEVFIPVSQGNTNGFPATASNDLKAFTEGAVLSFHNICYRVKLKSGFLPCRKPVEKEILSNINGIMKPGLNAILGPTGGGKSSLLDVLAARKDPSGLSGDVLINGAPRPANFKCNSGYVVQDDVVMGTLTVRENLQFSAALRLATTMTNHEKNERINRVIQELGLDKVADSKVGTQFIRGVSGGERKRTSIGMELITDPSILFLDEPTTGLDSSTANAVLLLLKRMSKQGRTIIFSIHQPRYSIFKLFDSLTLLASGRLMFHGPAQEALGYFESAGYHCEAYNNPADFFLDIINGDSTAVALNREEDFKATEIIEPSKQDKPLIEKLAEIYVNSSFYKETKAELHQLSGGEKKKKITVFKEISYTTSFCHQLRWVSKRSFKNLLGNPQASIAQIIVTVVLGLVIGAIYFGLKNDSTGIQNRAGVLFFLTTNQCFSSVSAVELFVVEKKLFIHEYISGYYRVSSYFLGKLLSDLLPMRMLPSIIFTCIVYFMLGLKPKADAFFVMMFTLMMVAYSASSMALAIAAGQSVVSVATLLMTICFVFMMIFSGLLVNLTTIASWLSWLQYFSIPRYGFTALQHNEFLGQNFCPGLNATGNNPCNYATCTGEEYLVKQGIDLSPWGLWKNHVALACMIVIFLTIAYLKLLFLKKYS

[11] = Cytotoxicity against ABCG2-overexpressing human HEK293/482R cells assessed as cell viability at 1 to 5 uM measured after 72 hrs by CCK8 assay; assay type: ADME, cell-based; conditions: ABCG2-overexpressing HEK293/482R cells, dose 1-5 µM, read-out: Activity

C=C(C)[C@H](CC=C(C)C)Cc1c(O)cc(O)c2c1O[C@H](c1ccc(O)cc1O)CC2=O [SOPHORAFLAVANONE G]
fold change (FC) (NCI-H460 [1]): 2.4
fold change (FC) (NCI-H460 [2]): 7.6
fold change (FC) (NCI-H460 [3]): 1.7
fold change (FC) (A549 [4]): 5.9
fold change (FC) (A549 [5]): 1.7
fold change (FC) (HEK293 [6]): 0.8
fold change (FC) (HEK293 [7]): 1.7
fold change (FC) (NCI/ADR-RES): 1
fold change (FC) (OVCAR-8): 1.1
fold change (FC) (HEK293 [8]): 0.7
fold change (FC) (HEK293 [9]): 0.9
fold change (FC) (HEK293 [10]): 0.9
inhibition at 1 h, 20 µM (ABCG2): 100%
viability at 72 h, up to 5 µM [11]: > 90%

Reference: ChEMBL document CHEMBL5055643, “Sophoraflavanone G Resensitizes ABCG2-Overexpressing Multidrug-Resistant Non-Small-Cell Lung Cancer Cells to Chemotherapeutic Drugs” (J Nat Prod, 2021)
